Test results: US8106218B2, “Pharmaceutical compounds” (Neuroscienze Pharmaness S.C. A R.L., priority 2004, dated 2012)
Like-named read-outs stand apart in the source and are kept apart here.

Experiments:
[1] = molecular target: T1, cannabinoidergic CB2 receptors (Rattus norvegicus, UniProt Q9QZN9); assay: Radioreceptorial binding, [3H]-CP-55,940 competition, rat spleen membranes; settings: rat spleen membranes, 1 nM [3H]-CP55,940; read-out: CB2 (spleen) Ki
T1 construct: the brain in toto (cerebellum excluded) and the spleen were rapidly dissected and maintained in ice; from tissue; host or cells: rat spleen, membrane preparation
T1 sequence (Q9QZN9 1-360): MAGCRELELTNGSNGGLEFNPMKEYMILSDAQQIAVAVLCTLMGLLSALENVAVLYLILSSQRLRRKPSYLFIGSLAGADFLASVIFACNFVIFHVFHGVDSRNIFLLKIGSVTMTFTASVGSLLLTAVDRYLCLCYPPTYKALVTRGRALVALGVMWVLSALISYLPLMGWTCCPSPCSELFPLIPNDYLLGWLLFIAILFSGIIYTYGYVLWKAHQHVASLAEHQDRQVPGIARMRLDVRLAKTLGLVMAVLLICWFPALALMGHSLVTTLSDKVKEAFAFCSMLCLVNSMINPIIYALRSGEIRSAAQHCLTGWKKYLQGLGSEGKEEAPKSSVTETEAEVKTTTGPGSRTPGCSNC
Procedure: (§1) The affinity of the synthesized compounds towards the cannabinoidergic CB1 and CB2 receptors was evaluated in vitro through radioreceptorial binding studies by utilizing the following method.
(§2) The receptorial binding technique allows indeed to establish if and with what affinity and specificity a determined compound binds itself to a particular receptor. To evaluate the possible affinity of a determined compound towards a particular receptor it is necessary to make to compete (in a particular preparation of the tissue in which those determined receptors are present) the compound to be tested with another compound whose affinity is known and whose molecule was rendered radioactive. […] The reading of the radioactivity present in the receptor-compound complex allows furthermore to calculate with extreme precision the amount of compound bound to the receptor. […] By repeating the same experimental scheme it is possible to evaluate the affinity of the compound towards other kinds of receptors and establish then the specificity degree.
(§3) Food and water were available ad libitum.
(§4) The animals were sacrificed by cervical dislocation, the brain in toto (cerebellum excluded) and the spleen were rapidly dissected and maintained in ice.
(§5) The tissue was homogenized in 15 volumes (weight/volume) of TME buffer (50 mM Tris, 1 mM EDTA e 3 mM MgCl2, pH 7.4) by an Ultra-Turrax and centrifuged for 10 minutes at 1086×g in a centrifuge cooled at 4° C. The resulting supernatant was centrifuged at 45,000×g for 30 min at 4° C. by using a Beckman SW41 rotor and the final pellet was resuspended in 50 volumes of TME.
(§6) The obtained membranes (50-80 μg of proteins) were incubated in the presence of 1 nM di[^3H]-CP55,940 for 1 h at 30° C. in a final volume of 0.5 ml of TME buffer containing 5 mg/ml of bovine serum albumin (BSA). The non specific binding was measured in the presence of CP55,940 at the 1 μM concentration.
(§7) All the experiments were carried out in polypropylene test tubes pretreated with Sigma-Cote (Sigma Chemical Co. Ltd., Poole, UK) to reduce the non specific binding.
(§8) For the building of the competitive inhibition binding curves eight different concentrations of each compound were used.
(§9) Incubation was interrupted by addition of TME buffer (at 4° C.) containing 5 mg/ml of BSA and filtration under vacuum through Whatman GFC filters pretreated with 0.5% of polyethylamine (PEI) and by using a filtering apparatus (Brandell, Gaithersburg, Md., USA). Filters were washed 3 times with 5 ml of Tris HCl buffer (pH 7.4, 4° C.) containing 1 mg/ml of BSA and singly placed in plastic vials containing 4 ml of scintillating liquid (Ultima Gold MV, Packard).
(§10) The radioactivity present in the filters was measured by a scintillator spectrophotometer (Tricarb 2100, Packard, Meridien, USA).
(§11) The protein determination was carried out by the Bradford method by using the protocol and the reactants supplied by Bio-Rad (Milano, Italia).
(§12) The affinity of the compounds towards the CB1 and CB2 receptors was expressed in Ki terms.

[2] = molecular target: T2, cannabinoidergic CB1 receptors (Rattus norvegicus, UniProt P20272); assay: Radioreceptorial binding, [3H]-CP-55,940 competition, rat brain membranes; settings: rat brain membranes, 1 nM [3H]-CP55,940; read-out: CB1 (brain) Ki
T2 construct: the brain in toto (cerebellum excluded) and the spleen were rapidly dissected and maintained in ice; from tissue; host or cells: rat brain (cerebellum excluded), membrane preparation
Procedure: as §1, §2, §3, §4, §5, §6, §7, §8, §9, §10, §11, §12

rat [3] = settings: for passage of the hemato-encephalic barrier: concluded from the hypothermia tests; for effect on body temperature (hypothermia) of the compound alone, in words: i.p., up to 120 min
Procedure: The rectal temperature in the rat was determined by an electronic thermometer inserted at a 2 mm depth. The measurements were carried out on rats acclimated for one hour. […]
Each test was repeated on ten animals; the reported results are the average of the results obtained with the ten animals.

rat intestinal motility [4] = assay: Intestinal motility, Upper Gut Transit Test, compound alone; assay type: in vivo; settings: control 50%
Procedure: (§13) To evaluate the activity in vivo of the compounds (I) object of the present invention, functional tests were carried out directed to the evaluation of the effect of said compounds on the rat intestinal motility. It was indeed shown the involvement of the cannabinoidergic CB1 receptors in the intestinal motility regulation in rat (R. G. Pertwee et al; Br. J. Pharmacol.; 1996, 118, 2199-2205). In particular, the CB1 receptor agonists slacken the gastrointestinal motility; antagonist compounds of the same receptors have instead a prokinetic effect on the gastrointestinal transit (G. Colombo et al.; Eur. J. Pharmacol.; 1998, 344, 67-69; M. A. Casu et al.; Eur. J. Pharmacol.; 2003, 459, 97-105).
(§14) The evaluation of the constipating or prokinetic effect of the compounds was carried out by the Upper Gut Transit Test method on the basis of the procedure defined and ratified by Y. Nagakura et al.; Eur. J. Pharmacol.; 1996, 311, 67-72. The method, which allows to measure the motility of the stomach and of the first intestine tract (small or little intestine), requires: • the administration of the compound to be tested by i.p. route; • the administration of carmine red (marker not directly absorbable from the stomach) by intragastric route through a metal probe, after 20 minutes from the administration of the compound to be tested; • the rat sacrifice by cervical dislocation after a pre-fixed time (30 minutes) starting from the administration time; • the intestine explant from pylorus to the ileo-cecal valve; • the determination of the intestinal part crossed by the marker; • the data processing to determine the percentage of crossed part with respect to the total length of the small intestine.
With respect to the control (physiological solution or carrier wherein the compounds to be tested were solubilized or dispersed), the administration of CB1 agonist compounds implies an intestinal transit percentage reduction; an opposite effect is noticed in case of antagonist compounds. The latter are therefore capable to cancel the constipating effect of CB1 agonist compounds.
Each test was repeated on ten animals; the results reported in the Examples are the average of the results obtained with ten animals.

rat intestinal motility [5] = assay: Intestinal motility, Upper Gut Transit Test, antagonism of the constipating action of WIN 55,212-2; assay type: in vivo; settings: compound 0.1 mg/kg before WIN 55,212-2 0.5 mg/kg, WIN alone 25%
Procedure: as §13, §14
With respect to the control (physiological solution or carrier wherein the compounds to be tested were solubilized or dispersed), the administration of CB1 agonist compounds implies an intestinal transit percentage reduction; an opposite effect is noticed in case of antagonist compounds. The latter are therefore capable to cancel the constipating effect of CB1 agonist compounds. […]

rat [6] = assay: Hypothermia test in vivo, antagonism of the hypothermia induced by WIN 55,212-2; settings: for antagonist activity towards the hypothermia induced by WIN 55,212-2, in words: compound i.p. 30 min before WIN 55,212-2 (3 mg/kg)
Procedure: The rectal temperature in the rat was determined by an electronic thermometer inserted at a 2 mm depth. The measurements were carried out on rats acclimated for one hour. The rectal temperature was determined before and after (from 30 to 120 minutes) the i.p. administration of the compound to be tested.

T2 sequence (P20272 whole entry): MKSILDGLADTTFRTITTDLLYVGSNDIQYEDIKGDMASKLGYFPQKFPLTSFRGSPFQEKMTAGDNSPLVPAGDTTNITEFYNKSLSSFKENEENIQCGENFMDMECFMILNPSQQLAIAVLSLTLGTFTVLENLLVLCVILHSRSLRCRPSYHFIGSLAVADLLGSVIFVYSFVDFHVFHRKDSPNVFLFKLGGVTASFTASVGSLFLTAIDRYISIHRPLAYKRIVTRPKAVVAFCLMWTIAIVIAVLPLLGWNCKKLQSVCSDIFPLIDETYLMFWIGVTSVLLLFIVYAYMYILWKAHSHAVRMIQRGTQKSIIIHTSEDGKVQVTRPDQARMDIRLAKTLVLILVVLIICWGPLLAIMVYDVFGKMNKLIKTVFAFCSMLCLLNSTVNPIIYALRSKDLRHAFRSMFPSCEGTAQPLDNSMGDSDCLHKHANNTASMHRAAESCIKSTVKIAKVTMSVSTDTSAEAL

Compound: O=C(NN1CCCC1)c1nn(-c2ccc(Cl)cc2Cl)c2c1CCc1sc(Br)cc1-2 [Example 3.7, N-pyrrolidinyl-7-bromo-1-(2′,4′-dichlorophenyl)-4,5-dihydro-1H-thieno[2,3-g]indazol-3-carboxamide]
- Ki [1]: 195 ± 27 nM
- Ki [2]: 126 ± 5 nM
- melting point: 227 °C

Compound: Cc1c(C(=O)c2cccc3ccccc23)c2cccc3c2n1[C@H](CN1CCOCC1)CO3 [WIN 55,212-2, reference compound]
- Body temperature (rat [3]; WIN 55,212-2 3 mg/kg alone, 0 min from administration): 37.9 °C
- Body temperature (rat [3]; WIN 55,212-2 3 mg/kg alone, 15 min): 35.6 °C
- Body temperature (rat [3]; WIN 55,212-2 3 mg/kg alone, 30 min): 33.8 °C
- Body temperature (rat [3]; WIN 55,212-2 3 mg/kg alone, 60 min): 34.5 °C
- Body temperature (rat [3]; WIN 55,212-2 3 mg/kg alone, 90 min): 35.8 °C
- Body temperature (rat [3]; WIN 55,212-2 3 mg/kg alone, 120 min): 36.8 °C
- intestinal portion run by the marker with respect to the total intestine length (rat intestinal motility [4]; WIN 55,212-2 0.5 mg/kg alone): 25%

Compound: N-piperidino-5-(4-chlorophenyl)-1-(2,4-dichlorophenyl)-4-methylpyrazol-3-carboxyamide [SR141716A, reference compound]
- intestinal portion run by the marker with respect to the total intestine length (rat intestinal motility [5]): 50%
- passage of the hemato-encephalic barrier (rat [3]): capable to pass the hemato-encephalic barrier
- effect on body temperature (hypothermia) of the compound alone, in words (rat [3]): has not implied any variation of the body temperature
- Body temperature (rat [6]; WIN 55,212-2 (3 mg/kg) + compound (0.1 mg/kg), 30 min): 35.3 °C
- Body temperature (rat [6]; WIN 55,212-2 (3 mg/kg) + compound (0.1 mg/kg), 60 min): 36.9 °C
- Body temperature (rat [6]; WIN 55,212-2 (3 mg/kg) + compound (0.1 mg/kg), 90 min): 37.5 °C
- Body temperature (rat [6]; WIN 55,212-2 (3 mg/kg) + compound (0.5 mg/kg), 30 min): 37.0 °C
- Body temperature (rat [6]; WIN 55,212-2 (3 mg/kg) + compound (0.5 mg/kg), 60 min): 37.8 °C
- Body temperature (rat [6]; WIN 55,212-2 (3 mg/kg) + compound (0.5 mg/kg), 90 min): 37.9 °C
- antagonist activity towards the hypothermia induced by WIN 55,212-2, in words (rat [6]): able to antagonize the effect of WIN 55,212-2
- intestinal portion run by the marker with respect to the total intestine length (rat intestinal motility [4]; compound 2.5 mg/kg i.p.): 75%

Compound: O=C(NN1CCCCC1)c1nn(-c2ccc(Cl)cc2Cl)c2c1CCc1sc(Cl)cc1-2 [Example 3.1, N-piperidinyl-7-chloro-1-(2′,4′-dichlorophenyl)-4,5-dihydro-1H-thieno[2,3-g]indazol-3-carboxamide]
- Ki [1]: 67.4 ± 6 nM
- Ki [2]: 44.3 ± 0.5 nM

Compound: O=C(NN1CCCCCC1)c1nn(-c2ccc(Cl)cc2Cl)c2c1CCc1sc(Br)cc1-2 [Example 3.8, N-homopiperidinyl-7-bromo-1-(2′,4′-dichlorophenyl)-4,5-dihydro-1H-thieno[2,3-g]indazol-3-carboxamide]
- Ki [1]: 60 ± 1 nM
- Ki [2]: 9.6 ± 1.7 nM
- melting point: 176 °C

Compound: Cc1cc2c(s1)CCc1c(C(=O)NN3CCCCC3)nn(-c3ccc(Cl)cc3Cl)c1-2 [Example 3.9, N-piperidinyl-7-methyl-1-(2′,4′-dichlorophenyl)-4,5-dihydro-1H-thieno[2,3-g]indazol-3-carboxamide]
- passage of the hemato-encephalic barrier (rat [3]): unable to pass the hemato-encephalic barrier
- Ki [1]: 55.1 ± 6 nM
- Ki [2]: 7.88 ± 0.5 nM
- melting point: 216 °C

Compound: Cc1cc2c(s1)CCc1c(C(=O)NN3CCCCCC3)nn(-c3ccc(Cl)cc3Cl)c1-2 [Example 3.11, N-homopiperidinyl-7-methyl-1-(2′,4′-dichlorophenyl)-4,5-dihydro-1H-thieno[2,3-g]indazol-3-carboxamide]
- Ki [1]: 57.1 ± 5 nM
- Ki [2]: 57 ± 6 nM
- melting point: 229 °C

Compound: O=C(NN1CCCCC1)c1nn(-c2ccc(Cl)cc2Cl)c2c1CCc1sc(Br)cc1-2 [Example 3.2, N-piperidinyl-7-bromo-1-(2′,4′-dichlorophenyl)-4,5-dihydro-1H-thieno[2,3-g]indazol-3-carboxamide]
- Body temperature (rat [3]; compound alone 0.1-30 mg/kg i.p., 0 min): 38.0 °C
- Body temperature (rat [3]; compound alone 0.1-30 mg/kg i.p., 15 min): 37.9 °C
- Body temperature (rat [3]; compound alone 0.1-30 mg/kg i.p., 30 min): 38.0 °C
- Body temperature (rat [3]; compound alone 0.1-30 mg/kg i.p., 60 min): 38.2 °C
- Body temperature (rat [3]; compound alone 0.1-30 mg/kg i.p., 90 min): 38.1 °C
- Body temperature (rat [3]; compound alone 0.1-30 mg/kg i.p., 120 min): 37.9 °C
- passage of the hemato-encephalic barrier (rat [3]): not able to pass the hemato-encephalic barrier
- effect on body temperature (hypothermia) of the compound alone, in words (rat [3]): In none of the examined cases there was a reduction of the body temperature
- Ki [1]: 36.8 ± 5 nM
- Ki [2]: 4.47 ± 0.14 nM
- Body temperature (rat [6]; WIN 55,212-2 (3 mg/kg) + compound (0.1-30 mg/kg), 0 min): 38.0 °C
- Body temperature (rat [6]; WIN 55,212-2 (3 mg/kg) + compound (0.1-30 mg/kg), 15 min): 38.0 °C
- Body temperature (rat [6]; WIN 55,212-2 (3 mg/kg) + compound (0.1-30 mg/kg), 30 min): 34.0 °C
- Body temperature (rat [6]; WIN 55,212-2 (3 mg/kg) + compound (0.1-30 mg/kg), 60 min): 34.5 °C
- Body temperature (rat [6]; WIN 55,212-2 (3 mg/kg) + compound (0.1-30 mg/kg), 90 min): 35.8 °C
- Body temperature (rat [6]; WIN 55,212-2 (3 mg/kg) + compound (0.1-30 mg/kg), 120 min): 36.8 °C
- antagonist activity towards the hypothermia induced by WIN 55,212-2, in words (rat [6]): no variation of the body temperature with respect to the treatment with the only WIN 55,212-2
